Patent US6676941B2 (Board of Regents, The University of Texas System, priority 1999, dated 2004)

What was measured:
[1] = tested on: cancer patients having progressive disease; conditions: clinical trials; cited from earlier work
[2] = Blood clearance of radioiodinated 2C3-GUS after intravenous injection; assay type: in vivo; conditions: 125I-labelled, intravenous injection into mice
From the text: 2C3-GUS was radioiodinated with ^125I to a specific activity of 5×10^6 cpm/μg.

[3] = Enzymatic activity of the GUS portion of 2C3-GUS; assay type: biochemical
From the text: The 6-His GUS was pure based upon SDS-PAGE, where it ran as a single band of 75 kDa band. On gel filtration columns, the 6-His GUS runs as a tetramer of about 300 kDa.
The biological activity of each component of the 2C3-GUS conjugate was confirmed.

[4] = molecular target: T1, VEGF alone or VEGF associated with sFlk-1 (VEGF:Flk-1) (Homo sapiens, UniProt P15692); assay: Indirect and capture ELISA for reactivity with VEGF alone or VEGF:Flk-1; assay type: binding
T1 sequence (P15692 27-191 isoform P15692-4): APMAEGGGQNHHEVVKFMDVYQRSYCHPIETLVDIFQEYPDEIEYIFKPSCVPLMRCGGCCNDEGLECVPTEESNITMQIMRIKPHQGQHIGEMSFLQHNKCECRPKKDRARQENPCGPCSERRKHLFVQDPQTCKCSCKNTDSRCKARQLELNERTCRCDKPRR
Description: The Flk-1/SEAP protein was produced and purified as described by Tessler et al. (1994). Basically, the extracellular domain of Flk-1 (sFlk-1) was produced in Spodoptera frugiperda (Sf9) cells and purified by immunoaffinity techniques utilizing a monoclonal anti-Flk-1 antibody (1A8). sF1k-1 was then biotinylated and bound on avidin-coated plates.
The reactivity was determined as described above for the initial screening.
A capture ELISA was also developed. In the capture ELISA, microtiter plates were coated overnight at 4° C. with 100 ng of the indicated antibody. […] Streptavidin conjugated to peroxidase (Kirkegaard & Perry Laboratories, Inc.), diluted 1:2000, was used as a second layer and developed.

[5] = tested on: VEGF-mediated growth of ABAE cells; assay: Endothelial cell growth assay (MTS), VEGF-mediated growth of ABAE cells; assay type: cell-based, bovine; conditions: Table 5 summary
Description: Adult bovine aortic endothelial (ABAE) cells were plated into 96-well tissue culture plates at 1500 cells/well and grown in the presence of 0.5 nM human VEGF with the addition of the various sample and control antibodies. Control wells received media with or without VEGF.
After 4 days of incubation, the cells were quantified by an MTS (3-(4,5-dimethylthiazol-2-yl)-5-(3-carboxylmethoxyphenyl)-2-(4-sulfophenyl)-2H-tetrazolium, inner salt) conversion assay, where MTS conversion to a formazan is proportional to cell number and can be followed by absorbance at 490 nm (Cell Titer 96 AQueous One Solution Cell Proliferation Assay, Promega, Madison, Wis.). The assay was performed according to the manufacturer's instructions.
Cell growth was estimated by subtracting the MTS conversion in cultures to which VEGF was not added. Results were expressed as a percentage of the MTS conversion in control cultures to which only VEGF was added (Buttke et al., 1993).

VEGFR2 (KDR/Flk-1) = assay: ELISA: VEGF binding to VEGFR2-coated wells in presence of antibody; design: species or system mouse
VEGFR2 = assay: VEGF-induced phosphorylation of VEGFR2 in PAE/KDR cells (immunoprecipitation, western blot); assay type: cell-based; conditions: 15 min stimulation, antibodies at 100 nM (15 μg/ml)
Description: PAE/KDR, PAE/FLT, and bEND.3 cells were grown to 80-90% confluency in 100 mm tissue dishes in media containing 5% serun. The cells were then serum starved for 24 hours in media containing 0.1% serum. After pretreatment with […] sodium orthovanadate in PBS for 30 min, the cells were incubated with 5 nM (200 ng/ml) VEGF165, 5 nM (100 ng/ml) bFGF (R&D Systems, Minneapolis, Minn.), or A673 tumor conditioned media in the presence or absence of control or test antibodies for additional 15 min.
The cells were then washed with ice-cold PBS containing 10 mM EDTA, 2 mM sodium fluoride, and 2 mM sodium orthovanadate and lysed in lysis buffer (50 mM Tris, 150 mM NaCl, 1% Nonidet P-40, 0.25% sodium deoxycholate, 0.1% CHAPS, 5 mM EDTA, 1.5 mM MgCl2, 2 mM sodium fluoride, 2 mM sodium orthovanadate, 10% glycerol and protease inhibitors (Complete Protease Inhibitor Cocktail tablets, Boehringer Mannheim)). The lysates were clarified by centrifugation and resulting supernatant used for immunoprecipitation.
The reactions using the chicken anti-FLT-1 antibody were subsequently incubated with a bridging goat anti-chicken antibody (Kirkegaard and Perry Laboratories, Inc.) for 1 h at 4° C. […]

NCI-H358 NSCLC tumors = assay: Treatment of established NCI-H358 NSCLC xenografts; assay type: in vivo, nu/nu mice
Description: (§1) Male nu/nu mice bearing subcutaneous NCI-H358 tumors or HT1080 fibrosarcoma 200-400 mm^3 in size were injected i.p. with test or control antibodies. The NCI-H358 bearing mice were treated with 100 μg of antibodies per injection three times a week during the first week and twice a week during the second and third week. The mice were then switched to 50 μg per injection every five days. The HT1080 bearing mice were treated with 100 μg of the indicated antibody or saline every other day throughout the duration of the study. In both studies, mice were sacrificed when their tumors reached 2500 mm^3 in size or earlier if tumors began to ulcerate.
Doses were 50-100 μg every 3-5 days. […] In addition to measuring mean tumor volume (FIG. 4), photographs of the mice from each treatment group were also taken to show the differences in tumor size and appearance at the end of the study.

HT1080 fibrosarcoma = assay: Treatment of established HT1080 fibrosarcoma xenografts; assay type: in vivo, nu/nu mice; conditions: 100 μg i.p. every other day; tumors 200-250 mm^3 at start
Description: as §1

[6] = tested on: A673 rhabdomyosarcoma and LS174T colon adenocarcinoma tumors; assay: Treatment of mice with established A673 and LS174T tumors; conditions: mouse, in vivo
KDR = assay: 125I-VEGF binding to KDR expressing endothelial cells (ABAE cells); design: species or system bovine
[7] = molecular target: T2, denatured VEGF121 and VEGF165 (Homo sapiens, UniProt P15692); assay: Western blot of VEGF under reducing and non-reducing conditions; assay type: binding
T2 sequence (P15692 27-191 isoform P15692-4): T1 sequence (P15692 27-191 isoform P15692-4)
Description: The nitrocellulose membrane was blocked using Sea-Block PP82-41 (East Coast Biologics, Berwick, Me.), and probed with primary antibodies using a mini-blotter apparatus (Immunetics, Cambridge, Mass.). The membranes were developed after incubation with the appropriate peroxidase-conjugated secondary antibody by ECL enhanced chemiluminescence.
Western blot analyses of anti-VEGF antibodies were conducted by separating VEGF165 in the presence of 5% FCS using SDS-PAGE on a 12% gel and analyzing by a standard western blotting protocol using ECL detection. The primary antibodies were incubated with the nitrocellulose membrane using a multi-lane mini-blotter apparatus.

VEGFR1 (FLT-1) = assay: ELISA: VEGF binding to VEGFR1-coated wells in presence of antibody
Description: The extracellular domain of VEGFR1 (Flt-1/Fc, R&D Systems, Minneapolis) or VEGFR2 (sFlk-1-biotin) was coated directly on wells of a microtiter plate or captured by NeutrAvidin (Pierce, Rockford, Ill.) coated wells, respectively. VEGF at a concentration of 1 nM (40 ng/ml) was incubated in the wells in the presence or absence of 100-1000 nM (15 μg-150 μg/ml) of control or test antibodies. The wells were then incubated with 1 μg/ml of rabbit anti-VEGF antibody (A-20, Santa Cruz Biotechnology, Santa Cruz, Calif.).
The reactions were developed by the addition of peroxidase-labeled goat anti-rabbit antibody (Dako, Carpinteria, Calif.) and visualized by addition of 3,3′5,5′-tetramethylbenzidine (TMB) substrate (Kirkegaard and Perry Laboratories, Inc.). Reactions were stopped after 15 min with 1 M H3PO4 and read spectrophotometrically at 450 nM.

[8] = tested on: NCI-H358 human NSCLC and HT29 human colonic adenocarcinoma xenografts; assay: In vivo localization in mice bearing human tumor xenografts (immunohistochemistry of tumor and organs)
Description: Tumors were grown subcutaneously in immunocompromised mice (NCI-H358 NSCLC in nu/nu mice and HT29 colon adenocarcinoma in SCID mice) until the tumor volume was approximately 1 cm^3. 100 μg of unlabeled antibody for studies using SCID mice, or 100 μg of biotinylated antibody for studies using nude mice, was injected intravenously via a tail vein. Twenty four hours later, the mice were anesthetized, perfused with PBS, and tumor and organs including heart, lungs, liver, kidneys, intestines and spleen were collected and snap frozen in liquid nitrogen.
The tumor and organs from each mouse were sectioned on a cryostat and stained for antibody immunohistochemically as above, with the exception that sections from the nude mice were developed using peroxidase labeled streptavidin-biotin complex (Dako, Carpinteria, Calif.) and the sections from the SCID mice were developed using two peroxidase-conjugated secondary antibodies, a goat anti-mouse IgG+IgM followed by a rabbit anti-goat IgG.
100 μg of GV39M and 3E7 or isotype-matched control IgG were injected into SCID mice bearing HT29 human colonic adenocarcinomas. Twenty-four hours later, the mice were sacrificed, exsanguinated and the tumors and tissues were removed.

VEGFR2 (KDR/Fc) = assay: Co-precipitation assay, VEGF binding to VEGFR2/Fc in solution; conditions: 40 ng VEGF, 200 ng receptor/Fc; 2C3 F(ab′)2 20 μg, A4.6.1 F(ab′)2 10 and 1 μg
Description: (§2) 200 ng of soluble forms of VEGFR1 (Flt-1/Fc) or VEGFR2 (KDR/Fc, R&D Systems, Minneapolis, Minn.) were added for a total volume of 50 μl and incubated for 2 hrs. The receptor/Fc constructs were precipitated using Protein A-sepharose beads and the resulting precipitate was washed 4 times with binding buffer.
(§3) Reducing sample buffer was added to the pellet and supernatant of each reaction and both were analyzed by 12% SDS-PAGE and transferred to PVDF membranes. […] The soluble receptor/Fc constructs were also detected by using peroxidase-conjugated goat anti-human Fc (Kirkegaard & Perry Laboratories, Inc.)
(§4) The receptor/Fc constructs were precipitated by incubation with Protein A sepharose beads. The precipitate was washed and resuspended in reducing sample buffer and separated by 12% SDS-PAGE and transferred to PVDF.

VEGFR1 (Flt-1/Fc) = assay: Co-precipitation assay, VEGF binding to VEGFR1/Fc in solution; conditions: 40 ng VEGF, 200 ng receptor/Fc; 2C3 F(ab′)2 20 μg, A4.6.1 F(ab′)2 10 and 1 μg
Description: as §2, §3, §4

[9] = 100 fold molar excess over VEGF

For `NC(=O)c1nnn(Cc2cc(Cl)c(C(=O)c3ccc(Cl)cc3)c(Cl)c2)c1N` [CAI, carboxyamidotriazole], the “Disease stabilization, share of cancer patients having progressive disease before treatment” value [1] is given as 49%.

In the case of 2C3-GUS, the “t½ α” value [2] is reported as “about 6 hours”, the “t½ β” value [2] is reported as “about 25 hours” and the “Enzymatic activity of GUS portion” value [3] is reported as “retained enzymatic activity”.

With “2C3: anti-VEGF monoclonal antibody, IgG2a,k, raised to recombinant human VEGF; hybridoma ATCC PTA 1595; blocks VEGF binding to VEGFR2, not VEGFR1” the “Predominant Reactivity” value [4] was “VEGF”, the “Blocks VEGF-induced proliferation” value [5] was “Yes” and the “Reduction in VEGF binding to VEGFR2” value (VEGFR2 (KDR/Flk-1); [9]) was “about 74%”. The “Amount VEGF bound to VEGFR2-coated wells, % of amount bound in the absence of antibody” value (VEGFR2 (KDR/Flk-1); 1000-fold molar excess of antibody over VEGF (1 nM VEGF)) was roughly 19%, the “Reduction in VEGF binding to VEGFR2” value (VEGFR2 (KDR/Flk-1); 1000 fold molar excess over VEGF) was “about 81%” and the “Blocks VEGF from binding to VEGFR2” value (VEGFR2 (KDR/Flk-1); Table 5 summary) was “Yes”. For the same compound, the “Blocking of VEGF-induced phosphorylation of VEGFR2” value (VEGFR2) was “block VEGF-induced phosphorylation of VEGFR2”, the “Mean tumor weight at the end of the study (day 116)” value (NCI-H358 NSCLC tumors; FIG. 5A, 100 μg i.p., initial treatment 500 μg i.v.) was 0.054 g and the “Mean tumor volume after approximately 14 wk of treatment” value (NCI-H358 NSCLC tumors; FIG. 5A, 100 μg i.p., start 480 mm^3 (2C3), 428 mm^3 (3E7)) was 84 mm^3. The “Decrease in mean tumor volume” value (NCI-H358 NSCLC tumors; FIG. 5A, after approximately 14 wk) was “approximately 80%”, the “Mean tumor volume at the end of the study, % of the initial mean tumor volume” value (NCI-H358 NSCLC tumors; tumors 300-450 mm^3 at start, 50-100 μg i.p. every 3-5 days, approximately 10 weeks) was 30% and the “Effect on growth of HT1080 tumors” value (HT1080 fibrosarcoma) was “arrested the growth of the tumors”. For the same compound, the “Effect on growth of established A673 and LS174T tumors” value [6] was “significantly slowed the growth”, the “Blocking of 125I-VEGF binding to KDR on ABAE cells” value (KDR) was “blocks VEGF from binding to KDR in a concentration dependent manner” and the “Reactivity with VEGF on western blot” value [7] was “react with denatured VEGF121 and VEGF165”. For the same compound, the “Amount VEGF that bound to ELISA wells, maintained” value (VEGFR1 (FLT-1); [9]) was “about 92%”, the “Blocks VEGF from binding to VEGFR1” value (VEGFR1 (FLT-1); Table 5 summary) was “No” and the “Tumor localization in the HT29 human tumor model” value ([8]; after i.v. injection) was “localized strongly to the connective tissue”. For the same compound, the “Immunohistochemical Reactivity, Tumor” value ([8]; as E17, 3E7 and GV39M bound tumor vascular endothelium, 2C3 bound tumor stroma) was 3+.

For 2C3 F(ab′)2: F(ab′)2 fragment of 2C3, the “Blocking of VEGF binding to VEGFR2/Fc in solution” value (VEGFR2 (KDR/Fc)) was “blocked the binding of VEGF to VEGFR2/Fc” and the “Blocking of VEGF binding to VEGFR1/Fc in solution” value (VEGFR1 (Flt-1/Fc)) was “not to VEGFR1/Fc”.
